# Results taken from patent US4070492A, “Propranolol assay” (priority 1977, dated 1978).
# “Also recorded” adds a separate entry of the source.
# Experiments:
# [1] = test system: both antisera (against d,l-propranolol and l-propranolol); assay: Competition with 3H-propranolol for binding, results stated once for both antisera; design: species or system rabbit; settings: for inhibition of 3H-propranolol binding: at 100 ng; for recognition / cross-reaction / interference: in words
# Description: (§1) New Zealand albino rabbits were immunized with propranolol-BSA immunogens once a week for 4 weeks and then once every 2 to 4 weeks. The immunogen was dissolved in phosphate-buffered saline (pH 7.4)
# (§2) and emulsified with an equal amount of complete Freund's adjuvant. One ml. of emulsion containing 500 μg of immunogen was injected into four foot pads and intramuscularly into both thighs. Bleedings were taken from the central ear artery 6 to 8 days after the third booster injection. Blood was allowed to clot overnight at 4° C. and centrifuged at 2,000 rpm for 15 mintues to separate serum.
# (§3) Antisera were diluted in a 2.5% solution of normal rabbit serum in 1:10 phosphate buffered saline. 0.4 ml. of this mixture was added to the assay tubes (10 × 75 mm). 10 μ1. of unknown or standard solutions were added to the tubes. 0.1 ml. of radioactive, d,l-propranolol solution containing 60 pg. (approximately 2,500 cpm) for antiserum against […] and 120 pg. (approximately 5,000 cpm) for antiserum against l-propranolol was subsequently added. The tubes were incubated overnight at 4° C. Antibody bound propranolol was separated by the addition of 0.5 ml. of saturated ammonium sulfate. The pellet was washed once with 0.8 ml. of 50% saturated ammonium sulfate, then dissolved in 0.5 ml. of water and transferred into a counting vial. The tube was washed twice with 3 ml. of Riafluor. Another portion of 6 ml. Riafluor was added to the vial to give a total volume of 12 ml., and the radioactivity was counted in a scintillation counter. The dilutions of the antisera used were 1:10,000 and 1:1000 respectively against d,l-propranolol and l-propranolol.
# (§4) The sensitivity of radioimmunoassay for d,l-propranolol and its l-isomer in phosphate-buffered saline and serum were determined.
# (§5) ID50 refers to the amount of the compound required to produce 50% inhibition of ^3 H-propranolol-antibody complex formation.
# [2] = test system: heart rate increase caused by isoproterenol; assay: Inhibition by propranolol of heart rate increase caused by isoproterenol in anesthetized rats; type: in vivo; settings: rat, 1 mg/kg i.v.
# Description: Increase in heart rate in response to isoproterenol 0.5 g/kg i.v. was compared beforeand at varying time after the administration of propranolol.
# [3] = Disposition of propranolol in rats: serum/blood levels by radioimmunoassay; settings: rat; for disposition in blood: 1 mg/kg racemic propranolol i.v., in words; for half-life: blood, iv, 1 mg/kg
# [4] = test system: antiserum against d,l-propranolol; assay: Competition with 3H-propranolol for binding to antiserum against d,l-propranolol (radioimmunoassay specificity); design: species or system rabbit; settings: for inhibition of 3H-propranolol binding: at 100 ng; for recognition by antiserum against d,l-propranolol: d- versus l-propranolol
# Description: as §1, §2, §3, §4, §5
# [5] = test system: antiserum against l-propranolol; assay: Competition with 3H-propranolol for binding to antiserum against l-propranolol (radioimmunoassay specificity); design: species or system rabbit; settings: for inhibition of 3H-propranolol binding: at 100 ng
# Description: as §1, §2, §3, §4, §5
# rat heart = assay: Disposition of propranolol in rats: heart levels by radioimmunoassay; settings: 1 mg/kg d,l-propranolol i.v.
# [6] = as above; settings: rat, heart, iv, 1 mg/kg
# [7] = rat, in vivo, iv, 1 mg/kg
# [8] = antiserum against l-propranolol
compound,measurement,setting,value
"OCC(O)COc1cccc2ccccc12 (stereo not drawn) [propranolol glycol, 1-(1-naphthoxy)-2,3-propylene glycol]","ID50 relative to values for l-propranolol and d,l-propranolol",[1]; both antisera,9-14 times
CC(C)NCC(O)COc1cccc2ccccc12 (racemic) [propranolol],time by which effect on heart rate disappeared,[2],≤ 90 min
same,suppression of increase in heart rate due to isoproterenol,[2]; first 30 minutes after administration,markedly suppressed
same,disposition in blood,[3],declines rapidly in the blood following the injection
CC(C)N [isopropylamine],inhibition of 3H-propranolol binding,[1],no inhibition
same,concentration needed for interference with the assay,[1]; both antisera,"at least 1,000 times greater"
NCCc1ccc(O)c(O)c1 [dopamine],inhibition of 3H-propranolol binding,[1],no inhibition
CC(C)NCC(O)c1ccc(Cl)c(Cl)c1 (stereo not drawn) [dichloroisoproterenol],inhibition of 3H-propranolol binding,"[4]; anti-d,l-propranolol antiserum",13%
same,recognition / cross-reaction / interference,[1]; both antisera,not significant recognized by either antisera
same,inhibition of 3H-propranolol binding,[5]; anti-l-propranolol antiserum,no inhibition
CC(C)NC[C@H](O)COc1cccc2ccccc12 [l-propranolol],half-life,[3],52 min
same,half-life relative to d-isomer,"[3]; 1 mg/kg d,l-propranolol i.v.",almost twice that of the d-isomer
same,"recognition by antiserum against d,l-propranolol",[4],to the same degree
same,decline in heart compared with blood,rat heart; after half an hour,almost parallel to that found in the blood
same,heart uptake / presence in heart,"rat heart; in words, 1 mg/kg",rapid accumulation of l-propranolol by the heart; also recorded: stereospecific uptake of l-propranolol by the rat heart; also recorded: only l-propranolol could be found in the heart
same,half-life,[6],62 min
same,selectivity of antiserum against l-propranolol,[5]; l-propranolol versus d-isomer,able to discriminate the l-propranolol selectively; also recorded: more selectively than the d-isomer
NCC(O)c1ccc(O)c(O)c1 (stereo not drawn) [norepinephrine],inhibition of 3H-propranolol binding,[1],no inhibition
CC(C)NC[C@@H](O)COc1cccc2ccccc12 [d-propranolol],initial blood level relative to l-propranolol,[7],three times higher
same,half-life,[3],23.8 min
same,disposition in blood,[3],remains in the blood and is metabolized rapidly
same,ID50 and 95% confidence limits,"[4]; anti-d,l-propranolol antiserum, amount for 50% inhibition of 3H-propranolol-antibody complex formation, 95% confidence limits in parentheses",314 pg
same,"recognition by antiserum against d,l-propranolol",[4],to the same degree
same,amount of l-form as which 100 pg of the d isomer is recognized by the l-antibody,[5]; 100 pg of d isomer,7 pg
same,ID50 and 95% confidence limits,"[5]; anti-l-propranolol antiserum, amount for 50% inhibition of 3H-propranolol-antibody complex formation, 95% confidence limits in parentheses",1656 pg
same,ID50 relative to that for l-propranolol,[5]; [8],14 times
O=C(O)COc1cccc2ccccc12 [1-naphthoxy acetic acid],inhibition of 3H-propranolol binding,"[4]; anti-d,l-propranolol antiserum",10%
same,concentration needed for interference with the assay,[1]; both antisera,"at least 1,000 times greater"
same,inhibition of 3H-propranolol binding,[5]; anti-l-propranolol antiserum,25%
CNCC(O)c1ccc(O)c(O)c1 (stereo not drawn) [epinephrine],inhibition of 3H-propranolol binding,[1],no inhibition
"Oc1ccc(O)c2ccccc12 [1,4-naphthalene-diol]",inhibition of 3H-propranolol binding,"[4]; anti-d,l-propranolol antiserum",no inhibition
same,concentration needed for interference with the assay,[1]; both antisera,"at least 1,000 times greater"
same,inhibition of 3H-propranolol binding,[5]; anti-l-propranolol antiserum,17%
Oc1cccc2ccccc12 [1-naphthol],inhibition of 3H-propranolol binding,"[4]; anti-d,l-propranolol antiserum",25%
same,concentration needed for interference with the assay,[1]; both antisera,"at least 1,000 times greater"
same,inhibition of 3H-propranolol binding,[5]; anti-l-propranolol antiserum,45%
CC(C)NCC(O)c1ccc(O)c(O)c1 (stereo not drawn) [isoproterenol],inhibition of 3H-propranolol binding,[1],no inhibition
same,recognition / cross-reaction / interference,[1]; both antisera,no cross-reaction
CC(C)NCC(O)c1ccc2ccccc2c1 (stereo not drawn) [pronethalol],inhibition of 3H-propranolol binding,"[4]; anti-d,l-propranolol antiserum",45%
same,recognition / cross-reaction / interference,[1]; both antisera,not significant recognized by either antisera
CC(C)NCC(O)COc1ccc(O)c2ccccc12 (stereo not drawn) [4-hydroxy-propranolol],"concentration needed for recognition by the d,l-antibody","[4]; antiserum against d,l-propranolol",≥ 70 times greater
same,concentration needed for recognition by the l-antibody,[5]; [8],≥ 35 times greater
